According to paper PMC10449633 (Nature Chemical Biology, 2023):
Several values for one entry are separate records, joined by “and”; a condition that tells them apart may be missing. Equal entries are not always repeated. Where two headings read alike, the source gives them in different places. Numbered stars: 1 amine (or outer) side, 2 acyl side, 3 side chain; on linkers, the order of the positions; unused ones are H or OH. Square brackets hold non-standard residues; d marks the D form. Peptide text beside a SMILES is read from it. ξ: configuration not given here. X1 = CN(C(Cc1cn(Cc2ccc(Br)cc2)c2ccccc12)C(=O)[*:2])[*:1]; ξAla(CF3) = NC(CC(F)(F)F)C(=O)O; X2 = N#CCCC(O[*:1])C(=O)[*:2]; NMeL = CN[CH](CC(C)C)C(=O)O; NMeA = CN[CH](C)C(=O)O

Assays:
WT Sec61α = molecular target: T1, WT Sec61α (Canis lupus familiaris, UniProt P38377); experiment: GLuc secretion reporter fused to full-length IL-2 or TNF, cells stably expressing WT Sec61α; type: cell-based, canine; conditions: for Sec61 WT - Hu IL2(FL) / Sec61 WT - Hu PD1(ss) / Sec61 WT - Hu TNFa(FL): replicate columns
T1 construct: expressed in transfected cells

R66I Sec61α = molecular target: T2, R66I Sec61α (Canis lupus familiaris, UniProt P38377, R66I); experiment: GLuc secretion reporter fused to full-length IL-2 or TNF, cells stably expressing R66I Sec61α; type: cell-based, canine; conditions: for Sec61 R66I - Hu IL2(FL) / Sec61 R66I - Hu PD1(ss) / Sec61 R66I - Hu TNFa(FL): replicate columns
T2 construct: expressed in transfected cells

SARS-CoV-2 [1] = type: cell-based; conditions: for infectious virus particle production: 48 h
SARS-CoV-2 [2] = type: cell-based; conditions: 48 h; 0.01 uM

T2 sequence (P60468 whole entry, the tested form may be a part): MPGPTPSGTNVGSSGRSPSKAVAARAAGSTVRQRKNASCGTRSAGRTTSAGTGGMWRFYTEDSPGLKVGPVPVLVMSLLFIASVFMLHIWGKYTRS
T2 sequence (P38377 whole entry R66I, the tested form may be a part): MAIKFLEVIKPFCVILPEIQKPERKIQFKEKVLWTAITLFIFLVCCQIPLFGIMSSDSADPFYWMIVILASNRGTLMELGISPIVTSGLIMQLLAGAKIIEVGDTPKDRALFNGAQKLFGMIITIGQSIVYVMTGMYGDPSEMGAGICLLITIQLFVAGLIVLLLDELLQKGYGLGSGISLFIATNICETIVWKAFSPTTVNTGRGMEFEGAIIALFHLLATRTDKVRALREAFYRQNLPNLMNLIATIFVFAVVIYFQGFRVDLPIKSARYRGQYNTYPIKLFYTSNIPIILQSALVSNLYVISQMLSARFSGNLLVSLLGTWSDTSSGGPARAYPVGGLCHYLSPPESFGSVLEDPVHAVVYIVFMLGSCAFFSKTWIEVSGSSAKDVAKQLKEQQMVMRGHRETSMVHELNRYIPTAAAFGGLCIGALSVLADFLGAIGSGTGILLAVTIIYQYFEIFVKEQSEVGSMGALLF
T2 sequence (P60059 whole entry, further chain, the tested form may be a part): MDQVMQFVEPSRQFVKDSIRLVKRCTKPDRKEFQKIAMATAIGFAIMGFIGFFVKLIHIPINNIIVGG
T1 sequence (P60468 whole entry, the tested form may be a part): as the sequence (P60468 whole entry, the tested form may be a part) above
T1 sequence (P38377 whole entry, the tested form may be a part): as the sequence (P38377 whole entry R66I, the tested form may be a part) above, with I66R counted along it
T1 sequence (P60059 whole entry, further chain, the tested form may be a part): as the sequence (P60059 whole entry, further chain, the tested form may be a part) above

Which results are given for `CC(C)CC1NC(=O)C(Cc2cn(Cc3ccc(Br)cc3)c3ccccc23)N(C)C(=O)C(CC(F)(F)F)NC(=O)C(CC(C)C)N(C)C(=O)C(CC(F)(F)F)NC(=O)C(CCC#N)OC(=O)C(C)N(C)C1=O` (stereo not drawn) [KZR-8445] (cyclo([X1]L[NMeA][X2][ξAla(CF3)][NMeL][ξAla(CF3)]); configuration not given here)?
Sec61 WT - Hu IL2(FL) (WT Sec61α; 0.32 nM): 112 and 115 and 119; Sec61 WT - Hu PD1(ss) (WT Sec61α; 0.32 nM): 120 and 121 and 116; Sec61 WT - Hu TNFa(FL) (WT Sec61α; 0.32 nM): 132 and 105 and 123; Sec61 WT - Hu IL2(FL) (WT Sec61α; 1.6 nM): 108 and 112 and 116; Sec61 WT - Hu PD1(ss) (WT Sec61α; 1.6 nM): 107 and 115 and 113; Sec61 WT - Hu TNFa(FL) (WT Sec61α; 1.6 nM): 119 and 96 and 85; Sec61 WT - Hu IL2(FL) (WT Sec61α; 8 nM): 105 and 102 and 116; Sec61 WT - Hu PD1(ss) (WT Sec61α; 8 nM): 91 and 108 and 92; Sec61 WT - Hu TNFa(FL) (WT Sec61α; 8 nM): 123 and 114 and 93; Sec61 WT - Hu IL2(FL) (WT Sec61α; 40 nM): 89 and 83 and 75; Sec61 WT - Hu PD1(ss) (WT Sec61α; 40 nM): 62 and 54 and 56; Sec61 WT - Hu TNFa(FL) (WT Sec61α; 40 nM): 81 and 75 and 70; Sec61 WT - Hu IL2(FL) (WT Sec61α; 200 nM): 57 and 37 and 42; Sec61 WT - Hu PD1(ss) (WT Sec61α; 200 nM): 18 (2×) and 19; Sec61 WT - Hu TNFa(FL) (WT Sec61α; 200 nM): 36 and 30 and 29; Sec61 WT - Hu IL2(FL) (WT Sec61α; 1000 nM): 7 and 6 (2×); Sec61 WT - Hu PD1(ss) (WT Sec61α; 1000 nM): 2; Sec61 WT - Hu TNFa(FL) (WT Sec61α; 1000 nM): 3 (2×) and 2; Sec61 WT - Hu IL2(FL) (WT Sec61α; 5000 nM): 1 and 0 (2×); Sec61 WT - Hu PD1(ss) (WT Sec61α; 5000 nM): 0; Sec61 WT - Hu TNFa(FL) (WT Sec61α; 5000 nM): 1 and 0 (2×); Sec61 WT - Hu IL2(FL) (WT Sec61α; 25000 nM): 0; Sec61 WT - Hu PD1(ss) (WT Sec61α; 25000 nM): 0 (2×) and -1; Sec61 WT - Hu TNFa(FL) (WT Sec61α; 25000 nM): 1 and 0 (2×); IC50 (WT Sec61α; 24 h, doxycycline-induced): ~100 nM; Sec61 R66I - Hu IL2(FL) (R66I Sec61α; 0.32 nM): 116 (2×) and 120; Sec61 R66I - Hu PD1(ss) (R66I Sec61α; 0.32 nM): 105 and 121 and 112; Sec61 R66I - Hu TNFa(FL) (R66I Sec61α; 0.32 nM): 121 and 138 and 116; Sec61 R66I - Hu IL2(FL) (R66I Sec61α; 1.6 nM): 105 and 113 and 110; Sec61 R66I - Hu PD1(ss) (R66I Sec61α; 1.6 nM): 120 and 103 and 107; Sec61 R66I - Hu TNFa(FL) (R66I Sec61α; 1.6 nM): 85 and 126 and 152; Sec61 R66I - Hu IL2(FL) (R66I Sec61α; 8 nM): 113 and 98 and 120; Sec61 R66I - Hu PD1(ss) (R66I Sec61α; 8 nM): 115 and 104 and 125; Sec61 R66I - Hu TNFa(FL) (R66I Sec61α; 8 nM): 118 and 113 and 150; Sec61 R66I - Hu IL2(FL) (R66I Sec61α; 40 nM): 101 and 106 and 117; Sec61 R66I - Hu PD1(ss) (R66I Sec61α; 40 nM): 115 and 120 and 121; Sec61 R66I - Hu TNFa(FL) (R66I Sec61α; 40 nM): 103 and 123 and 141; Sec61 R66I - Hu IL2(FL) (R66I Sec61α; 200 nM): 106 and 96 and 94; Sec61 R66I - Hu PD1(ss) (R66I Sec61α; 200 nM): 88 and 107 and 86; Sec61 R66I - Hu TNFa(FL) (R66I Sec61α; 200 nM): 88 and 105 and 111; Sec61 R66I - Hu IL2(FL) (R66I Sec61α; 1000 nM): 79 and 90 and 87; Sec61 R66I - Hu PD1(ss) (R66I Sec61α; 1000 nM): 68 and 64 and 75; Sec61 R66I - Hu TNFa(FL) (R66I Sec61α; 1000 nM): 82 (2×) and 71; Sec61 R66I - Hu IL2(FL) (R66I Sec61α; 5000 nM): 83 and 76 and 88; Sec61 R66I - Hu PD1(ss) (R66I Sec61α; 5000 nM): 52 and 49 (2×); Sec61 R66I - Hu TNFa(FL) (R66I Sec61α; 5000 nM): 73 and 85 and 77; Sec61 R66I - Hu IL2(FL) (R66I Sec61α; 25000 nM): 89 and 88 and 72; Sec61 R66I - Hu PD1(ss) (R66I Sec61α; 25000 nM): 48 (2×) and 40; Sec61 R66I - Hu TNFa(FL) (R66I Sec61α; 25000 nM): 70 and 78 and 77; block of secretion of both GLuc reporter constructs in R66I cells (R66I Sec61α; IL-2 and TNFα GLuc, versus WT Sec61α): reduced; infectious virus particle production (SARS-CoV-2 [1]; 0.01 uM): 2000000 TCID50 per milliliter and 1175555 TCID50 per milliliter; infectious virus particle production (SARS-CoV-2 [1]; 10 uM): 928.318 TCID50 per milliliter and 632.456 TCID50 per milliliter; CoV-2 replication (SARS-CoV-2 [1]; Vero cells): blocked; viral genome copy number (SARS-CoV-2 [2]): 25500000 and 22400000 and 23500000
